Here are results for 30 compounds from ChEMBL document CHEMBL1201862, “PubChem BioAssay data set” (2004).

Activity calls are given as the source filed them. Some results are limits rather than exact numbers.

The target in assay [1] is T1, Carboxy-terminal domain RNA polymerase II polypeptide A small phosphatase 1 (Homo sapiens, UniProt Q9GZU7).
T1 sequence (Q9GZU7 whole entry): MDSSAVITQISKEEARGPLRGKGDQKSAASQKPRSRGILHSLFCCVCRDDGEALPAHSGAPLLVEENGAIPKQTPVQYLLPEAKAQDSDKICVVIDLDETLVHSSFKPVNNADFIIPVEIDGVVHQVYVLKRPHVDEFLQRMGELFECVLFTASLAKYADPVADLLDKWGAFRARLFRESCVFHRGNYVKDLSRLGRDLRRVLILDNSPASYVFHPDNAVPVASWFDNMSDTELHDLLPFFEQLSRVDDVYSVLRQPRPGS
Put plainly: CTDSP1 inhibitors, concentration-response, biochemical, absorbance readout, ultra-high-throughput screen actives (AID 540297). Type of assay: functional.

Assay [2] concerns Vero. Description: viability of Vero cells under compound – cytotoxicity control for flavivirus capping enzyme inhibitors (AID 588742). Type of assay: functional. To be noted: Chlorocebus sabaeus.
The target of assay [3] is Genome polyprotein (dengue virus type 2, UniProt P29990). Description: flavivirus cap methylation enzyme inhibition – biochemical, confirmation dose response, primary screen (AID 588689). Type of assay: functional.
Assay [4] has as its target T2, Protein RecA (Mycobacterium tuberculosis, UniProt P9WHJ3).
T2 sequence (P9WHJ3 whole entry): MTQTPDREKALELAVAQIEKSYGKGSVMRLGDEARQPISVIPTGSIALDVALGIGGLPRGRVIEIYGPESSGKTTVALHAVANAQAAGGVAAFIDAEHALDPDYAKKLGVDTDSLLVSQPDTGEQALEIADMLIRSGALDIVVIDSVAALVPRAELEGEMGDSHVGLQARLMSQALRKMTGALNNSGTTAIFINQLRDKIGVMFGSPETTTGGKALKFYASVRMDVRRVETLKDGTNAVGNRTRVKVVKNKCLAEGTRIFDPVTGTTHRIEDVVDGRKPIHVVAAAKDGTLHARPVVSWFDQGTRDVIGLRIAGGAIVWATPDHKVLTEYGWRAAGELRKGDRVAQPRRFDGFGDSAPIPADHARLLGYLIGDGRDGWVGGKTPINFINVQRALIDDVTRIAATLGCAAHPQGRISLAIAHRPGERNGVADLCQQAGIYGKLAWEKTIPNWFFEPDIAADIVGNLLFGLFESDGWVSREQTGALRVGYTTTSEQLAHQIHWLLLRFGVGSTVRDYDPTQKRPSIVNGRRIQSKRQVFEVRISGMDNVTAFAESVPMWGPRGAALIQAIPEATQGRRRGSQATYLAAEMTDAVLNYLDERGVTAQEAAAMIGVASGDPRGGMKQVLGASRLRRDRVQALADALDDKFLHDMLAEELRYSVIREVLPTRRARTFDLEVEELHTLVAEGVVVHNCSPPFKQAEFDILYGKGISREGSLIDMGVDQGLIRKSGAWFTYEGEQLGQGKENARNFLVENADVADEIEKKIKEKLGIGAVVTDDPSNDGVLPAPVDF
Put plainly: Fluorescence Cell-Free Homogeneous Dose Retest to Identify Inhibitors of RecA-Intein Splicing Activity. [Related pubchem assays (depositor defined):AID2097, AID2223, AID489010, AID492950]. Type of assay: functional.

The target in assay [5] is T3, Replicative DNA helicase DnaB (Mycobacterium tuberculosis, UniProt P9WMR3).
T3 sequence (P9WMR3 whole entry): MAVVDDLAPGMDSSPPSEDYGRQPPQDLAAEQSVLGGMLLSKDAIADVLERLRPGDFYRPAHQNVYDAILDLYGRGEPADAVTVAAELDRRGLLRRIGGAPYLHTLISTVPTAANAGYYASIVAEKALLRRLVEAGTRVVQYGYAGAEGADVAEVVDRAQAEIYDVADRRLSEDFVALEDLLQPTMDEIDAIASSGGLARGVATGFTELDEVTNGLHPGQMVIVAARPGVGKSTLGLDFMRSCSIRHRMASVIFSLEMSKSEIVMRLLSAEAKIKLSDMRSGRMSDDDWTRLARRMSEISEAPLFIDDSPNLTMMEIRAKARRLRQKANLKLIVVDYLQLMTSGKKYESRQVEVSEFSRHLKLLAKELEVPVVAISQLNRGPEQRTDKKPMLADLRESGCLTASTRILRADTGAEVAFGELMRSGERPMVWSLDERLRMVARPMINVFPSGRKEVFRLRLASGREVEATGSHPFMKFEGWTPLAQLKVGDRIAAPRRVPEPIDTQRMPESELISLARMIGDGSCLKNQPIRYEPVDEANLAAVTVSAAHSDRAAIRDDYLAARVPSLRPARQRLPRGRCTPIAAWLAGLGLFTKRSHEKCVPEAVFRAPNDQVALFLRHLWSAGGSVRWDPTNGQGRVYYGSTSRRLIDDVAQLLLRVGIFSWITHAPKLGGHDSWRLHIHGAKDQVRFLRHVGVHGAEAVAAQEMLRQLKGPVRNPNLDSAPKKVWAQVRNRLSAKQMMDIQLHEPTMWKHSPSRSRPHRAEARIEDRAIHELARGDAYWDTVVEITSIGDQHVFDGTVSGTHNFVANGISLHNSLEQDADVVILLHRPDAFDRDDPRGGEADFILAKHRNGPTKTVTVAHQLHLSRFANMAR
Description: DnaB intein splicing inhibitors, dose response, biochemical, cell-free fluorescence (AID 449749). It counts as functional.

A short description of assay [6]: Luminescence Cell-Based Dose Confirmation HTS to Identify Inhibitors of Platelet Dense Granule Release. [Related pubchem assays: 1663 (Primary HTS), 1678 (Summary of Project)]. Type of assay: functional.
The target of assay [7] is Luciferin 4-monooxygenase (Photinus pyralis, UniProt P08659). Put plainly: inhibition of purified Photinus pyralis luciferase – biochemical, luminescence, dose response (AID 1891).
Assay [8] deals with FAD-linked sulfhydryl oxidase ALR (Homo sapiens, UniProt P55789). Description: ALR-catalysed DTT oxidation blockers – biochemical, H2O2 detection, luminescence, cherry-pick, dose response (AID 493248).
Assay [9] addresses Large T antigen (Simian virus 40, UniProt P03070). Type of assay: functional, Betapolyomavirus macacae.
The nature of assay [10]: Trypanosoma cruzi growth suppression in host cells – NIH3T3 host cells, beta-gal luminescence, confirmation (AID 2044).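 Further: intracellular parasites grown in NIH/3T3 mouse fibroblasts as host cells; luminescent beta-galactosidase reporter signal from transgenic T. cruzi replicating inside host cells; inhibitors lower the luminescence signal.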 Type of assay: functional, cell-based.
Assay [11] in a line: NIH3T3 cell viability loss – ATP luminescence, mouse fibroblasts, counter-screen, dose response (AID 2010).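 Further: cells exposed to compound for about 90 hours before reading.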 Type of assay: functional, cell-based. For orientation: A counterscreen serves to expose hits that act by an unwanted route or on another target.
Assay [12] concerns the target Nonstructural protein 1 (Influenza A virus, UniProt Q194T2). Type of assay: functional, Influenza A virus (A/California/07/2009(H1N1)).
The nature of assay [13]: viability loss in THP-1 monocytes – THP-1 cells, cytotoxicity control for Vif-APOBEC3G degradation inhibitor project, dose response (AID 1117359). It counts as functional. To be noted: THP-1.
For assay [14], the system named is INS1. Description: INS-1E survival protection against cytokine death – cell-based, luminescence, retest, dose response (AID 449756).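 Further: cell death triggered by IL-1 beta plus TNF-alpha plus IFN-gamma mixture; protective hits raise ATP signal compared with cytokine alone wells.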 Type of assay: functional. To be noted: Rattus norvegicus.
Assay [15] is described as follows: viability of uninfected HEp-2 cells – cell-based, HTS, cytotoxicity control for RSV inhibitor project, dose response (AID 2410). Type of assay: functional. The settings on record: human respiratory syncytial virus.
Assay [16] in a line: P. falciparum Dd2 growth inhibitors, dose response, SYBR Green, cherry-picked samples (AID 1159567). It counts as functional, cell-based.

Large T antigen, sequence (P03070 whole entry): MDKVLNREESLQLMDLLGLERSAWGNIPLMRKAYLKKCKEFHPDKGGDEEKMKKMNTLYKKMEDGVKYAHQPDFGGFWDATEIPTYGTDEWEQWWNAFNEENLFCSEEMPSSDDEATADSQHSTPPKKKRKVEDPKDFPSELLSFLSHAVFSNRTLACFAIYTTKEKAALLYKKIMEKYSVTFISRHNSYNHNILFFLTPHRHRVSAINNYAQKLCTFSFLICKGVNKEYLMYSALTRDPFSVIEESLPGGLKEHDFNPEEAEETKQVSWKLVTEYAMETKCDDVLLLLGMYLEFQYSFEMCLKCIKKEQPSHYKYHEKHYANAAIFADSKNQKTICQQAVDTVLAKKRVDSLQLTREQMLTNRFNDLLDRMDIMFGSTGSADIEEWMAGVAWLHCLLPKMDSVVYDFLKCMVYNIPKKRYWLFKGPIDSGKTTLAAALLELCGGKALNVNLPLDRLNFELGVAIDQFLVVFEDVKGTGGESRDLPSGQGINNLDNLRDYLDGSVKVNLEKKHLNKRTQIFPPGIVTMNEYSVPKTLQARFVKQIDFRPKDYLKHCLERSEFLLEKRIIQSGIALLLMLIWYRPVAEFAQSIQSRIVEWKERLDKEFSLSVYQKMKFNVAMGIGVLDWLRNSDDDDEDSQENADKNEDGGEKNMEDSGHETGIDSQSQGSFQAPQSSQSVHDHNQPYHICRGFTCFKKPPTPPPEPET
Genome polyprotein, sequence (P29990 2492-3391 limits assumed): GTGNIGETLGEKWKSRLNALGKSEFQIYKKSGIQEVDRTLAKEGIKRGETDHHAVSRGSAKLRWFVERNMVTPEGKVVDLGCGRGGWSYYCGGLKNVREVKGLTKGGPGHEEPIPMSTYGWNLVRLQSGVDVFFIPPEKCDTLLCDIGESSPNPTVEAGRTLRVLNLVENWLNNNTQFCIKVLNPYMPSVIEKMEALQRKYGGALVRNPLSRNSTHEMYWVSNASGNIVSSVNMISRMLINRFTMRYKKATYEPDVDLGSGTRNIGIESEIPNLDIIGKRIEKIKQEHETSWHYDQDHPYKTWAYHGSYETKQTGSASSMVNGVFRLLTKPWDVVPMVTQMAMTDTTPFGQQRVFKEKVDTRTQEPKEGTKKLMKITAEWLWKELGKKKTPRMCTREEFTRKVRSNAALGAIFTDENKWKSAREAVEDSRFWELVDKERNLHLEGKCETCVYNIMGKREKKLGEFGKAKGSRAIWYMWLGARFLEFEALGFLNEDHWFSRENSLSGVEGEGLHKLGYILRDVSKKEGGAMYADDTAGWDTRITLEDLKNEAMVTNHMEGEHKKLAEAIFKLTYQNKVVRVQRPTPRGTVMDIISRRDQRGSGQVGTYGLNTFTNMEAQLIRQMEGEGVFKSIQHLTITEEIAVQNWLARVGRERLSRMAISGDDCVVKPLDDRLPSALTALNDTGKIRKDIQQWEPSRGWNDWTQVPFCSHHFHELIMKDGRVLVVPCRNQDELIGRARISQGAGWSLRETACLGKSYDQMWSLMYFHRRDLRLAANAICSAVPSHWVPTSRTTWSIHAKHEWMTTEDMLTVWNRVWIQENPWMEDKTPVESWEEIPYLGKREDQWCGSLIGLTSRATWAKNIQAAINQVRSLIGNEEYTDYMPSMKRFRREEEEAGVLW
Nonstructural protein 1, sequence (Q194T2 whole entry): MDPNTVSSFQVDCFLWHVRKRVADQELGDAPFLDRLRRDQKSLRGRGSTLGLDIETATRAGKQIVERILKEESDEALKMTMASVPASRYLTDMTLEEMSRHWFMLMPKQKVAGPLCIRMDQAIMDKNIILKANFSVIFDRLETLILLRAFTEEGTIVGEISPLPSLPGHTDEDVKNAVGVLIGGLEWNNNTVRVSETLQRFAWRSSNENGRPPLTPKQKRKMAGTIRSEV
Luciferin 4-monooxygenase, sequence (P08659 whole entry): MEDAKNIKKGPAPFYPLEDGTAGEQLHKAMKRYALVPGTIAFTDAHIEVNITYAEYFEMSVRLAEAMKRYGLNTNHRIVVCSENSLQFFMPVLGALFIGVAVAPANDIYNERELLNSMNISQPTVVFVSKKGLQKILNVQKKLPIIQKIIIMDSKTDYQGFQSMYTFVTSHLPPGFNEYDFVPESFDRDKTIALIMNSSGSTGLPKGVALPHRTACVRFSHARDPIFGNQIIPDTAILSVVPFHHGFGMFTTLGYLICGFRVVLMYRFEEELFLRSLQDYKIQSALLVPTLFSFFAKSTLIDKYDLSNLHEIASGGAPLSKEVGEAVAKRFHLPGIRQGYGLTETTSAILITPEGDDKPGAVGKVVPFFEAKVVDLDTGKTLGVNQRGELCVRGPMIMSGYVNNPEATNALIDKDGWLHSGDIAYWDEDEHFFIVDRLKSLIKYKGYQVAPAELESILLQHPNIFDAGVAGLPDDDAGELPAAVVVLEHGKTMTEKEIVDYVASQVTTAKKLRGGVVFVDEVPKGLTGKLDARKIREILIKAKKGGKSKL
FAD-linked sulfhydryl oxidase ALR, sequence (P55789 whole entry): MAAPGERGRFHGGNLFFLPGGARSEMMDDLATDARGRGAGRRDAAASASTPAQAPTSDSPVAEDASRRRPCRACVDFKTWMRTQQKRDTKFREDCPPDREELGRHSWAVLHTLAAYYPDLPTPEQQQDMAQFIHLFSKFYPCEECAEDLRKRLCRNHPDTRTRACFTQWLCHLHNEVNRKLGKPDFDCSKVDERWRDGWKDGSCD

As for `O=C(O)c1ccc(CNc2ccccc2C(=O)O)cc1`, the IC50 (as a rule, the concentration that gives 50% inhibition) in [1] is 25.3 µM (active).
For `CC1=NN(C(N)=S)C(=O)C1N=Nc1cccc(Cl)c1C` (configuration not stated), the CC50 (usually the concentration that lowers cell viability or growth by half) in assay [2] is > 40 µM (active).
For the compound `O=C(CCN1C(=O)/C(=C/c2ccc3c(c2)OCO3)SC1=S)Nc1cccc(C(=O)O)c1`, the IC50 in [1] is 6.78 µM (active); in assay [3] it was 47 µM (active).
`CCOc1ccc(/C=C2\SC(=S)N(CCC(=O)Nc3ccccc3C(=O)O)C2=O)cc1`: in assay [4], the EC50 (as a rule, the concentration needed to bring the measured effect to its halfway point) was 15.1 µM (active). Besides, the IC50 in assay [1] was 4.86 µM (active); in assay [3], 29.3 µM (active). In addition, the AC50 (in general, the concentration at which the activity in the assay is half-maximal) in [5] is 6.1 µM (active).
Regarding `Cc1ccc2[nH]c(/C(C#N)=C/c3ccc(-c4ccccc4C(=O)O)o3)nc2c1`, the IC50 in [1] was 17 µM (active).
As to `O=C(c1ccccc1)c1ccc2[nH]c(-c3ccc(NC(=O)c4ccccc4F)cc3)nc2c1`, the EC50 in [6] and in assay [7] was > 112 µM (not active) throughout.
In the case of `COc1ccc(NC2CCCN(C(=O)c3c(C)noc3C)C2)cc1` (configuration not stated), the AC50 in assay [8] is 3.46 µM (active). Moreover, the 50% inhibitory concentration (IC50) in assay [9] is 24 µM (active).
As to `O=C(Nc1cccc(N2CCCC2)c1)c1cccs1`, the EC50 in [10] was 4.67 µM (active); in [6] it was > 112 µM (not active); in assay [11], > 60 µM (not active); in [7], > 112 µM (not active).
In the case of `COc1ccc(N=Nc2c(N)n[nH]c2N)cc1`, the AC50 in assay [8] is 17 µM (active). Also, in [9], the IC50 is 12 µM (active).
With `CC1=NN(c2ccccc2)C(=O)/C1=C\c1sccc1C`, the IC50 in assay [12] was > 100 µM (active).
For `O=C(CN(CCCN1CCOCC1)C(=O)Cn1nnc(-c2ccc(F)cc2)n1)NC1CCCCC1`, the EC50 in assay [6] and in assay [7] was > 112 µM (not active) throughout.
With `O=C1c2ccccc2C(Nc2ccc3c(c2)OCO3)N1Cc1ccco1` (configuration not stated), the EC50 in assay [6] and in assay [7] was > 112 µM (not active) each time.
With `COC(=O)c1ccc(C)c(NC(=O)CSc2sc3c(O)cc(=O)[nH]c3c2C#N)c1`, the IC50 in assay [1] is 3.04 µM (active).
In the case of `Cc1ccccc1CCNC(=O)c1ccc(Cl)c(S(=O)(=O)N2CC(C)OC(C)C2)c1` (configuration not stated), in [13], the 50% cytotoxic concentration (CC50) is > 40 µM (active).
Regarding `CN1/C(=C\C(=S)NC(=O)c2ccccc2Cl)C(C)(C)c2ccccc21`, the AC50 in assay [14] is 8.03 µM (active). In addition, in assay [12], the IC50 is 29.3 µM (active).
`O=C1NN(c2cccc(Br)c2)C(=O)/C1=C\c1ccc(O)cc1`: the IC50 was 17.2 µM (active) in [9] and > 100 µM (active) in assay [3].
As to `CC1C/C(=C/c2ccco2)C(=O)/C(=C/c2ccco2)C1` (configuration not stated), in assay [13], the CC50 is > 40 µM (active).
On to `CCc1ccc(-c2cc(C)no2)cc1S(=O)(=O)N1CCN(c2ccccc2OC)CC1`, for which the 50% effective concentration (EC50) in assay [6] and in assay [7] was > 112 µM (not active) each time.
Turning to `Cc1ccc(C2CC(c3ccccc3)=NN2C(=O)CSc2nnc(-c3ccc(Cl)cc3)o2)o1` (configuration not stated), the EC50 in [6] and in [7] was > 112 µM (not active) throughout.
In the case of `Oc1ccccc1C=NCCN1CCN(CCN=Cc2ccccc2O)C1c1ccccc1O` (configuration not stated), the IC50 in assay [12] is 1.75 µM (active).
With `Cc1ccc(S(=O)(=O)N2[C@@H](c3ccc(Br)cc3)C(C(=O)O)=C[C@H]2CC2CCCC2)cc1`, the CC50 in [2] is > 40 µM (active). For the same compound, in [3], the IC50 is 37 µM (active).
As for `CC1=C(SCc2ccccc2)C(=O)c2ccccc2C1=O`, the results for the CC50 in assay [13] and in [2] were 34.6 µM (active) and > 40 µM (active), respectively. Further, the IC50 in assay [3] is 76.8 µM (active).
Turning to `COc1ccc(Cl)cc1C=CC=NNC(=O)c1ccncc1`, the IC50 in assay [1] was 18.9 µM (active).
With `C=C(C)CNC(=S)N/N=C(\C)c1ccc(OC)cc1`, the values for the EC50 in assay [6] and in assay [7] were 30.5 µM (active) and > 112 µM (not active), respectively.
As for `C/C(=N\NC(=O)c1ccc(NS(=O)(=O)c2cccs2)cc1)c1ccc2ccccc2c1`, the EC50 in assay [6] and in assay [7] was > 112 µM (not active) throughout. Also, the CC50 in [15] is 16.7 µM (active).
As for `N#Cc1c(/N=C/c2ccc(-c3ccccc3C(=O)O)o2)sc2c1CCCC2`, the IC50 in assay [1] was 9.17 µM (active).
`COc1ccc2c3c(n(C)c2c1)[C@@H](CO)N(Cc1ccccc1F)CC31CCN(CC2CC2)CC1`: in [16], the AC50 is 2.61 µM (active).
For the compound `COc1ccc(-c2ccc3c(c2)[C@H]2[C@H](CCN2Cc2ccncc2)[C@@H](CO)N3)cc1`, the AC50 in assay [16] is 7.26 µM (active).
As to `COc1ccc2c3c([nH]c2c1)[C@@H](CO)N(C(=O)C1CCCCC1)CC31CCN(Cc2nccs2)CC1`, the AC50 in [16] is 4.44 µM (active).
Regarding `COc1ccc(C#Cc2ccc3c(c2)[C@@H]2[C@@H](CCN2C(=O)C2CC2)[C@H](CO)N3)cc1`, in assay [16], the AC50 is 5.56 µM (active).
